Reference: patent US7833967B2, “Synthetic antimicrobial polypeptides” (priority 2003, dated 2010)

The substances below were run on E. coli TOP10 (assay: Suicide expression system (SES) growth inhibition). Details: Table 4; variants of SEQ ID NO:10, re-tested in the Bioscreen C.
Format: cell-based

Going from “132 (RRRPFRPPFRPPLRPPVRPPVRPPIRP; Synthetic antimicrobial peptide) [compound 132]” to “133 (RRRPFRPPIRPPFRPPVRPPIRPPVRP; Synthetic antimicrobial peptide) [compound 133]”, the “Growth inhibition (%)” value falls from 72% to 62%.

First: 134 (RRRPFRPPFRPPFRPPVRPPLRPPVRP; Synthetic antimicrobial peptide) [compound 134]
Second: 135 (RRRPIRPPIRPPIRPPIRPPIRPPLRP; Synthetic antimicrobial peptide) [compound 135]
The “Growth inhibition (%)” value of the first is higher: 68% for the first, 38% for the second.

Compared with “136 (RRRPFRPPFRPPIRPPFRPPIRPPLRP; Synthetic antimicrobial peptide) [compound 136]”, “137 (RRRPLRPPFRPPFRPPIRPPFRPPVRP; Synthetic antimicrobial peptide) [compound 137]” is lower in “Growth inhibition (%)” value: 77% for the first, 58% for the second.

Compared with “138 (RRRPLRPPFRPPVRPPFRPPFRPPFRP; Synthetic antimicrobial peptide) [compound 138]”, “139 (RRRPFRPPFRPPIRPPFRPPIRPPVRP; Synthetic antimicrobial peptide) [compound 139]” is lower in “Growth inhibition (%)” value: 78% for the first, 67% for the second.

First: 140 (RRRPIRPPIRPPFRPPVRPPVRPPFRP; Synthetic antimicrobial peptide) [compound 140]
Second: 141 (RRRPIRPPIRPPFRPPFRPPLRPPIRP; Synthetic antimicrobial peptide) [compound 141]
The “Growth inhibition (%)” value of the first is higher: 70% for the first, 65% for the second.

First: 142 (RRRPLRPPIRPPVRPPFRPPVRPPFRP; Synthetic antimicrobial peptide) [compound 142]
Second: 143 (RRRPFRPPVRPPVRPPFRPPLRPPVRP; Synthetic antimicrobial peptide) [compound 143]
The “Growth inhibition (%)” value of the first is higher: 70% for the first, 43% for the second.

Going from “144 (RRRPIRPPLRPPVRPPVRPPFRPPFRP; Synthetic antimicrobial peptide) [compound 144]” to “145 (RRRPLRPPVRPPFRPPFRPPLRPPFRP; Synthetic antimicrobial peptide) [compound 145]”, the “Growth inhibition (%)” value falls from 64% to 59%.

Going from “146 (RRRPLRPPFRPPIRPPFRPPFRPPLRP; Synthetic antimicrobial peptide) [compound 146]” to “147 (RRRPFRPPFRPPIRPPVRPPVRPPFRP; Synthetic antimicrobial peptide) [compound 147]”, the “Growth inhibition (%)” value rises from 68% to 79%.

Going from “148 (RRRPIRPPFRPPFRPPFRPPFRPPLRP; Synthetic antimicrobial peptide) [compound 148]” to “149 (RRRPIRPPIRPPFRPPFRPPVRPPVRP; Synthetic antimicrobial peptide) [compound 149]”, the “Growth inhibition (%)” value falls from 76% to 62%.

“150 (RRRPIRPPIRPPFRPPIRPPFRPPVRP; Synthetic antimicrobial peptide) [compound 150]” and “151 (RRRPLRPPVRPPLRPPVRPPFRPPFRP; Synthetic antimicrobial peptide) [compound 151]” are the same in “Growth inhibition (%)” value: 68% for the first, 68% for the second.

Going from “152 (RRRPFRPPFRPPFRPPFRPPVRPPIRP; Synthetic antimicrobial peptide) [compound 152]” to “153 (RRRPIRPPFRPPIRPPVRPPIRPPFRP; Synthetic antimicrobial peptide) [compound 153]”, the “Growth inhibition (%)” value falls from 75% to 68%.

First: 154 (RRRPFRPPFRPPVRPPVRPPFRPPFRP; Synthetic antimicrobial peptide) [compound 154]
Second: 155 (RRRPFRPPFRPPFRPPFRPPFRPPLRP; Synthetic antimicrobial peptide) [compound 155]
The “Growth inhibition (%)” value of the first is lower: 75% for the first, 83% for the second.

Going from “156 (RRRPFRPPLRPPFRPPFRPPIRPPFRP; Synthetic antimicrobial peptide) [compound 156]” to “157 (RRRPIRPPFRPPIRPPFRPPVRPPLRP; Synthetic antimicrobial peptide) [compound 157]”, the “Growth inhibition (%)” value falls from 67% to 64%.
